Data set [1] in a line: Absorption and emission spectra of copolymers F1-F3 and fluorophores D1-D3. The class given is physicochemical. The source says:
The target dye-loaded copolymers F1-F3 were then subject to investigations of their spectroscopic properties in both organic solvents and aqueous solution. […] Attaching to the 120-kDa amphiphilic copolymer drastically enhances the water solubility of BODIPY D1 and chlorin D2 without strong perturbation on the spectroscopic properties. Emission band for F1 and F2 in water remains the same as the ones measured in organic solutions, showing minimal dye-dye interaction is involved in aqueous solution of F1 and F2 at μM concentration. […] This negative result may be because of the inappropriate size of the copolymer backbone. Polymer larger in size may be required to encapsulate large hydrophobic fluorophores like the phthalocyanine D3.
All chemicals obtained commercially were used as received unless otherwise noted. Reagent-grade solvents (CH2Cl2, THF, methanol) and HPLC-grade water were used as received. NMR data was measured in a solution of CDCl3 unless otherwise noted. Noncommercial compounds 1, 2, and 4 were prepared following literature procedures. […] Samples were detected with Agilent 1260 infinity refractive index detector. Absorption spectra were measured on Agilent 8453 and Shimadzu UV1800 instruments using dilute (μmolar) solutions of the compound in UV transparent (e.g., quartz) cuvettes versus a solvent blank at room temperature.

Data set [2] in a line: Fluorescence quantum yield of F1-F3 and D1-D3. The class given is physicochemical. The source says:
[…] […] These comparisons indicate the absence of dye-dye quenching resulting from the aggregation for F1 and F2 in μM aqueous solutions. […] Also, a smaller phthalocyanine skeleton (e.g. with methyl instead of heptyl as peripheral groups) may be encapsulated with the current length of copolymer successfully.

As for `Cc1cc(C)c(-c2c3nc(c(-c4ccc(C(=O)NN)cc4)c4ccc(cc5nc(cc6ccc2[nH]6)CC5(C)C)[nH]4)C=C3)c(C)c1` [Compound D2, 5-[4-(N-Aminocarbamoyl)phenyl]-10-Mesityl-18,18-dimethylchlorin], the absorption wavelength in data set [1] stood at 640 nm. Further, the “Φf (fluorescence quantum yield)” value in data set [2] (CH2Cl2) was 0.19.
Compound `CCCCCCCc1cc2c(cc1CCCCCCC)-c1nc-2nc2[nH]c(nc3nc(nc4[nH]c(n1)c1cc(CCCCCCC)c(CCCCCCC)cc41)-c1cc(C#Cc4ccc(CC(=O)NN)cc4)ccc1-3)c1cc(CCCCCCC)c(CCCCCCC)cc21` [Compound D3, 2-[4-(N-Aminocarbamoyl)methylphenylethynyl]-9,10,16,17,23,24-hexaheptylphthalocyanine] returned an absorption wavelength in data set [1] of 700 nm. Also, the “Φf (fluorescence quantum yield)” value in data set [2] (Toluene) is given as 0.68.

These data come from patent publication US12139617B2, “Polymeric fluorophores, compositions comprising the same, and methods of preparing and using the same” (North Carolina State University, priority 2017, dated 2024).
